The record followed here is patent US12502393B2, “Dual mode of action soluble guanylate cyclase activators and phosphodiesterase inhibitors and uses thereof” (TOPADUR PHARMA AG, priority 2018, dated 2025).

In assay [1] the test system is Rat aortic smooth muscle cells. The assay is described as follows: Cellular cGMP assay in rat aortic smooth muscle cells. The format is cell-based. Conditions: 10 μM Riociguat; for Ratio Maximum cGMP increase vs Baseline: 5 mM GSH, incubation 2 h. As to the method:
Examples (Test compounds) were characterized for their potency and efficacy to elevate cGMP in cellular systems such as human trabecular meshwork cells (Table 3), human platelets (Table 5) and rat aortic smooth muscle cells (Table 4).
Human trabecular meshwork cells (ABC Biopply AG, Solothurn, Switzerland) or rat aortic smooth muscle cells (Sigma Aldrich AG, Buchs, Switzerland) were plated in a 96 well plate precoated with collagen (Collagen Type I solution from rat tail, Sigma; diluted to 0.1 mg/ml) at 20.000 cells per well and grown in corresponding Trabecular Meshwork (ABC Supply AG) or Smooth Muscle (Sigma AG) Growth medium as provided by the manufacturers. After 18 h medium was exchanged and new medium added supplemented with 5 mM GSH. The next day culture medium was exchanged to DMEM with low glucose supplemented with 5 mM GSH. Cells were pre-incubated with 10 μM Riociguat (soluble guanylate cyclase stimulator; Lucerna-Chem AG, Luzern, Switzerland) for 15 min before test or reference compounds or vehicle was added to a final incubation volume of 100 μl per well. At the end of the incubation time (see below) the reaction was terminated by adding HCl (0.16M), IBMX (Isobutylmethylxanthin) (2 mM) in DMSO (2%) to the culture medium, final concentrations per well are given in brackets. Following a 20 sec on a plate shaker (200 rpm) the plate was immediately frozen at −80° C.
(§1) cGMP was determined by a commercially available ELISA kit (Direct cGMP ELISA kit, Enzo Life Sciences AG, Lauren, Switzerland) with a lower detection limit of 0.08 pmol/ml using the acetylation protocol following manufacturer's instructions. Results are given as the means from at least two independent experiments each in triplicate.
(§2) To study concentration-dependent effects on total cGMP test and reference compounds were investigated from 0.1 nM to 1 μM in half-logarithmic steps with an incubation time of 2 h. To examine the time course the incubation times were (min) 10, 30, 60, 90, 120 at 1 μM of test or reference compound.
(§3) Compounds were diluted from stock solutions in DMSO. The final concentration of DMSO in all wells including the vehicle controls was 0.2% for human trabecular meshwork and rat aortic smooth muscle cells and 0.3% for platelets.
(§4) From time course experiments, the time to half of the maximum cGMP increase with 1 μM of test compound has been extrapolated (t0.5max).

The subject of assay [2] is Human Platelets. The assay is described as follows: Total cGMP in human platelets. The format is cell-based. Conditions: for Ratio Maximum cGMP increase vs Baseline: 1 μM riociguat and 100 nM BAY 190954, incubation 2 h; for Concentration (nM) for 3-fold cGMP or 2-fold* increase vs Baseline: 3-fold increase (values without asterisk), 1 μM riociguat, 100 nM BAY 190954. Here is the method:
Effects of test and reference compounds on total cGMP in human platelets were investigated as described by Dunkern and Hatzelmann (Cell Signal. 17: 331-9, 2005) with modifications. Briefly, buffy coats (acquired form SRK Blutspende Zurich) were 4-fold diluted in 150 mM sodium chloride solution containing 0.9% sodium citrate and centrifuged at 200 g for 10 min. The resulting platelet-rich plasma was supplemented with a 1/10 volume of ACD solution (85 mM sodium citrate, 111 mM D-glucose, 71 mM citric acid, pH 4.4) and apyrase (Sigma AG) to a final concentration of 2 U/ml. After another centrifugation (1400 g, 10 min) the cellular pellet was resuspended in Ca2+/Mg2+-free Hepes-Tyrode buffer (134 mM NaCl, 12 mM NaHCO3, 2.9 mM KCl, 0.36 mM NaH2PO4, 5 mM HEPES, 5 mM glucose, 0.5% (w/v) bovine serum albumin, pH 7.4) and platelets were counted.
Platelets were used at 9×10^7 cells in 100 μl per well and after adding test and reference compounds the incubation volume was 200 μl per well in Hepes-Tyrode. Experiments in platelets were done in presence of 1 μM riociguat and 100 nM BAY 190954 (PDE2 inhibitor) (Lucerna Chem AG) and test/reference compounds were added after a preincubation time of 15 min. At the end of the incubation time (see below) the reaction was terminated by adding 20 μl of 2N HCl per well. Following a 20 sec on a plate shaker (300 rpm) the plate was left for 15 min and then centrifuged at 1000×g for 5 min. Supernatants were stored at −80° C.
as §1, §2, §3, §4

In assay [3] the test system is Human Trabecular Meshwork Cells. The assay is described as follows: Cellular cGMP assay in human trabecular meshwork cells. As to conditions: HTMC, 10 μM Riociguat; for Concentration (nM) for 3-fold or 2-fold* cGMP increase vs Baseline: 3-fold increase (values without asterisk); for Ratio Maximum cGMP increase vs Baseline: 5 mM GSH, incubation 2 h. The format is cell-based.

Assay [4] has as its target T1, recombinant human (rh) PDE5A (Homo sapiens, UniProt O76074).
T1 construct: GST; purchased SIGMA E9034
The assay is described as follows: Phosphodiesterase-5 activity assay (radiometric SPA). The format is biochemical. Conditions: rhPDE5A1, 0.5 μM cGMP, 20 min at 37° C.

Take `CCCc1nn(C)c2c(=O)[nH]c(-c3cc(S(=O)(=O)N4CCC([C@H](CO[N+](=O)[O-])O[N+](=O)[O-])CC4)ccc3OCC)nc12` [Compound 1a, (R)-1-(1-((4-ethoxy-3-(1-methyl-7-oxo-3-propyl-6,7-dihydro-1H-pyrazolo[4,3-d]pyrimidin-5-yl)phenyl)sulfonyl)piperidin-4-yl)ethane-1,2-diyl dinitrate]: in assay [1], the “Concentration (nM) for 3-fold cGMP increase vs Baseline” value stood at 222 nM and the “Ratio Maximum cGMP increase vs Baseline” value came to 4.44. Also, in assay [2], the “Ratio Maximum cGMP increase vs Baseline” value is 67.4 and the “Concentration (nM) for 3-fold cGMP or 2-fold* increase vs Baseline” value is 57 nM. In addition, in assay [3], the “Concentration (nM) for 3-fold or 2-fold* cGMP increase vs Baseline” value was 26.7 nM and the “Ratio Maximum cGMP increase vs Baseline” value amounted to 55.7. The IC50 – broadly, the concentration needed to halve the response being measured – in assay [4] came out at 5 nM.
In the case of `CCCc1nc(C)c2c(=O)[nH]c(-c3cc(S(=O)(=O)N4CCC([C@@H](O)CO[N+](=O)[O-])CC4)ccc3OCC)nn12` [Compound 2c, (R)-2-(1-((4-ethoxy-3-(5-methyl-4-oxo-7-propyl-3,4-dihydroimidazo[5,1-f][1,2,4]triazin-2-yl)phenyl)sulfonyl)piperidin-4-yl)-2-hydroxyethyl nitrate], in assay [1], the “Concentration (nM) for 3-fold cGMP increase vs Baseline” value was 729 nM and the “Ratio Maximum cGMP increase vs Baseline” value is recorded as 5.93. For the same compound, in assay [2], the “Ratio Maximum cGMP increase vs Baseline” value turned out to be 105.4 and the “Concentration (nM) for 3-fold cGMP or 2-fold* increase vs Baseline” value came to 4.3 nM. Further, in assay [3], the “Concentration (nM) for 3-fold or 2-fold* cGMP increase vs Baseline” value was 10.1 nM and the “Ratio Maximum cGMP increase vs Baseline” value was 52.1. The IC50 in assay [4] was found to be 0.14 nM.
Take `CCCc1nn(C)c2c(=O)[nH]c(-c3cc(S(=O)(=O)N4CCC([C@@H](O)CO)CC4)ccc3OCC)nc12` [Compound 4, (R)-5-(5-((4-(1,2-dihydroxyethyl)piperidin-1-yl)sulfonyl)-2-ethoxyphenyl)-1-methyl-3-propyl-1,6-dihydro-7H-pyrazolo[4,3-d]pyrimidin-7-one]: in assay [1], the “Concentration (nM) for 3-fold cGMP increase vs Baseline” value was above 10000 nM and the “Ratio Maximum cGMP increase vs Baseline” value came to 1.04. Also, in assay [2], the “Ratio Maximum cGMP increase vs Baseline” value was 6.4 and the “Concentration (nM) for 3-fold cGMP or 2-fold* increase vs Baseline” value amounted to 92.6 nM. In addition, in assay [3], the “Concentration (nM) for 3-fold or 2-fold* cGMP increase vs Baseline” value turned out to be 99.8 nM and the “Ratio Maximum cGMP increase vs Baseline” value worked out at 12.4. In addition, the IC50 in assay [4] was determined as 1.5 nM.
In the case of `CCCc1nc(C)c2c(=O)[nH]c(-c3cc(S(=O)(=O)N4CCC([C@@H](O)CO)CC4)ccc3OCC)nn12` [Compound 25, (R)-2-(5-((4-(1,2-dihydroxyethyl)piperidin-1-yl)sulfonyl)-2-ethoxyphenyl)-5-methyl-7-propyl imidazo[5,1-f][1,2,4]triazin-4(3H)-one], in assay [1], the “Concentration (nM) for 3-fold cGMP increase vs Baseline” value is above 10000 nM and the “Ratio Maximum cGMP increase vs Baseline” value is 0.89. In addition, in assay [2], the “Ratio Maximum cGMP increase vs Baseline” value is reported as 23.3 and the “Concentration (nM) for 3-fold cGMP or 2-fold* increase vs Baseline” value was 5.9 nM. In assay [3], the “Concentration (nM) for 3-fold or 2-fold* cGMP increase vs Baseline” value amounted to 58.5 nM and the “Ratio Maximum cGMP increase vs Baseline” value is 22.3. For the same compound, the IC50 in assay [4] is 0.08 nM.
